Molecules are shown by their SMILES.

As a reminder, the melting point is the temperature, or range, at which the solid turns liquid. Turning to `COC(=O)c1c(SC)c2cc(OC)ccc2n1C`, the melting point was 89 to 91 °C.

The compound `NS(=O)(=O)c1ccccc1OC(F)(F)C(F)Cl` (centres undefined) had a melting point of 113 to 116 °C.

In turn, `CC(=O)N1CCN(CCN2C=Cc3cc(S(N)(=O)=O)sc3S2(=O)=O)CC1` displayed a melting point of 180 to 183 °C.

`Cc1c(O)cccc1OCc1ccccc1`: the melting point was in the range of 58 to 59 °C.

For `CCCCCCCCc1nc2c(N)nc3ccccc3c2n1CCOCC#Cc1ccccc1`, the melting point is 138 to 139 °C.

`O=C(O)c1ccc(Cl)cc1Nc1ccc(O)cc1` showed a melting point of 164 to 165 °C.

Take `O=C(O)CCCc1cc2nc(Cl)ccc2n1S(=O)(=O)c1cccc2cccnc12`: the melting point fell in the range of 186 to 189 °C.

As to `O=[N+]([O-])c1ccc(CN2CCC(C(c3ccccc3)c3ccccc3)CC2)cc1`, the melting point was 130 to 131 °C.

On to `O=C(CC1NC(=O)c2ccsc2-n2cccc21)c1ccccc1` (centres undefined), for which the melting point is 205 °C.

Compound `CC1(C)CCC(C)(C)c2cc3c(cc21)CCc1c(-c2ccc(C(=O)O)cc2)csc1-3` had a melting point of 261 to 262 °C.

`O=C1CC(c2cccc(-c3noc(CCCO)n3)c2)=Nc2ccc(-c3ccc(F)cc3)cc2N1`: the melting point was 220 to 222 °C.

For the compound `Cc1nnc2ccc(-c3cccc(C(F)(F)F)c3)cn12`, the melting point is 185 to 187 °C.

`CCOC(=O)[C@@H](O)CCNC(=O)[C@@H](CSC(C)=O)Cc1ccccc1C` had a melting point of 48 to 52 °C.

Take `CCOCc1nc2c(N)nc3cc(-n4ccccc4=O)ccc3c2n1CCCOC(C)C`: the melting point lay in the range of 161 to 164 °C.

For the compound `CC(C)CCCC(C)NC(=O)Oc1ccc2oc3ccccc3c2c1` (centres undefined), the melting point was in the range of 114 to 115 °C.

In turn, `COc1ccc(-c2cnnc(-c3ccc(C(F)(F)F)cc3F)c2N)cc1` registered a melting point of 215 to 216 °C.

`CCCCC1=NSc2ccccc2N1Cc1ccc(-c2ccccc2C(=O)O)cc1` showed a melting point of 215 to 217 °C.

Compound `CC(=O)Oc1ccc(C=CC(=O)C=Cc2ccc(OC(C)=O)c(OC(C)=O)c2)cc1OC(C)=O` had a melting point of 70 to 72 °C.

In the case of `O=C(Nc1cn(C2CCCCO2)nc1C(=O)NCCNc1ccccn1)c1ccccn1` (centres undefined), the melting point is 178 to 180 °C.

As for `COc1cccc(Nc2cnc3c(NCc4ccccc4)nc(NCCO)nc3c2)c1`, the melting point lay in the range of 110 to 111 °C.

Turning to `c1ccc(C(OC(c2ccccc2)(c2ccccc2)c2ccccc2)(c2ccccc2)c2ccccc2)cc1`, the melting point is 89 to 91 °C.

Take `CCOC(=O)c1csc(/C=C/c2cccc(N)c2)n1`: the melting point is 112 to 113 °C.

`Cc1ccc(S(=O)(=O)N(C)c2ccc(Cl)cc2C(N)=O)cc1` registered a melting point of 176 to 178 °C.

As to `Cc1c(F)cc(C(=O)NCCC(C)C)cc1-c1ccc(C(=O)NCC(C)(C)C)cc1C(=O)Nc1nccs1`, the melting point lay within 159 to 164 °C.

As to `COc1ccc(C(CN(C)C)C2(O)C=CCCC2)cc1` (centres undefined), the melting point fell in the range of 128 to 130 °C.

Compound `COC(=S)C(Cl)=C(C)Cl` came in with a melting point of 27 to 30 °C.

As for `O=Cc1cccc2ccc(-c3ccccc3)nc12`, the melting point is 100 to 102 °C.

As to `CCOC(=O)c1ccc(N2C(=O)CCC2CO)c(NC(=NC(=O)OC(C)(C)C)NC(=O)OC(C)(C)C)c1` (centres undefined), the melting point lay within 104 to 110 °C.

With `CCOC(=O)CNC(=O)c1ncc(O)cc1O`, the melting point lay in the range of 96 to 98 °C.

As to `CCN1C=C2C=C(S)N=CN2N1`, the melting point lay in the range of 251 to 254 °C.

The compound `O=c1[nH]c2ncc(-c3cncnc3)nc2n1CC1CCCCC1` yielded a melting point above 260 °C.

`O=C(O)Cc1csc(NC(=O)C(CC2CCCC2)c2ccc(Cl)c(Cl)c2)n1` (centres undefined) gave a melting point of 100 to 102 °C.

`Oc1nc2ccc3nccnc3c2nc1O` registered a melting point above 300 °C.

`CC(C)c1c(S(=O)(=O)c2ccc(O)cc2)c2ccccn2c1C#N` displayed a melting point of 232 °C.

The compound `C[C@H]1Cc2c(Cl)c(Cl)cc3c(=O)c(C(=O)O)cn1c23` displayed a melting point of 268 to 270 °C.

The compound `CC1(c2n[nH]c(=O)o2)CC1` came in with a melting point of 68 to 70 °C.

With `COc1ccc(C2c3cc(NC(=O)CC(C)(C)C)c(C)c(C)c3OC2(C)C)cc1` (centres undefined), the melting point was in the range of 169 to 170 °C.

`CC1(C(=O)O)Cc2ccccc2NC1=O` (single isomer, unassigned; (+)): the melting point is 139 to 141 °C.

In the case of `[N-]=[N+]=NCC(=O)c1cn2c3c(cccc13)CCC2`, the melting point lay within 92 to 93 °C.

For the compound `COc1ccc(CCN(C)CCCCc2ccc(NC(=O)c3cccc4c(=O)c5cccc(OC)c5[nH]c34)cc2)cc1OC`, the melting point worked out at 170 °C.

As to `CCn1cc([N+](=O)[O-])cn1`, the melting point was 54 to 55 °C.

The compound `Nc1c(F)c(N2CCC(c3ccncc3)C2)c(F)c2c1c(=O)c(C(=O)O)cn2C1CC1` (centres undefined) came in with a melting point of 236 to 238 °C.

Compound `CCC1(CCCCCl)C(=O)Nc2c(Cl)cc(Cl)cc21` (centres undefined) displayed a melting point of 65 to 67 °C.

Take `CC(C)(C)[Si](C)(C)OC1CN(c2ccc([N+](=O)[O-])cc2F)C1`: the melting point is 98.5 to 99.5 °C.

`Cc1c(-c2cccnc2)n(CCCCCC(N)=O)c2ccc(Cl)cc12` returned a melting point of 137 to 140 °C.

In the case of `Cc1cccnc1Cn1nnc2ccccc21`, the melting point fell in the range of 175 to 177 °C.

For `Cn1ncnc1-n1cc(C(=O)O)c(=O)c2cc(F)c(Cl)nc21`, the melting point fell in the range of 238 to 242 °C.

`CCCCCCCCCCCCNC(=O)c1cc(Br)c(OCCNC(N)=O)c(-c2cccc(C(F)(F)F)c2)c1` gave a melting point of 122 to 125 °C.

Compound `CCCn1c(=O)c2nc(C(=O)O)cn2c2ccccc21` yielded a melting point of 232 to 234 °C.

`Cc1[nH]cnc1/C=C/C(=O)c1cc2ccccc2n1C` gave a melting point of 222 to 224 °C.

In turn, `O=Cc1cccc(-c2cc(-c3ccc(C(F)(F)F)cc3)no2)c1` came in with a melting point of 151 to 152 °C.

Compound `COc1ccc(CCc2oc3ccc(Br)cc3c2CO)cc1` came in with a melting point of 65 to 75 °C.

`O=[N+]([O-])c1ccc(NN=C2c3ncc(Cl)cc3C=CC2Cl)c([N+](=O)[O-])c1` (centres undefined) registered a melting point above 280 °C.

Turning to `Nc1nc(Nc2cccnc2)sc1C(=O)c1ccc(OC(F)F)cc1`, the melting point worked out at 143 °C.

`CC(=O)c1cccc(-c2ncccc2OC2SCC(O)C(O)C2O)c1` (centres undefined): the melting point was in the range of 128 to 133 °C.

In turn, `COc1ccc(S(=O)(=O)CNC=O)cc1` showed a melting point of 105 to 107 °C.

Compound `CCCCOc1c(N(C)C(=O)OC(C)(C)C)n(CC(C)(C)C)c(=O)c2ccc(CC(N)=O)cc12` gave a melting point of 114 to 115 °C.

Take `CCN1CC([N+](=O)[O-])=C(N(C)C)N(Cc2cccnc2)C1`: the melting point was 97 to 98 °C.

On to `CC1(C)OCC(C)(C)c2cc(OS(C)(=O)=O)ccc2O1`, for which the melting point fell in the range of 65 to 67 °C.

Turning to `CCCN(CCC)C(=O)n1cnc(S(=O)(=O)CC(C)C)n1`, the melting point lay in the range of 62 to 63.5 °C.

Turning to `CC(C)(C)OC(=O)N[C@@H]1C[C@H](C(=O)O)Nc2cc(Cl)cc(Cl)c21` (relative stereo), the melting point fell in the range of 186 to 188 °C.

The compound `CC(=O)Nc1cnc(-c2ccccc2)nc1NCC(=O)N(C)c1ccccc1` returned a melting point of 200 to 201 °C.

The compound `COc1ccc(Cn2nnnc2C(O)c2ccccc2Cl)cc1` (racemic) had a melting point of 128 to 130 °C.

As to `CCCn1c(C#N)c(Cl)n(-c2ccc(Cl)cc2)c1=O`, the melting point was 102 to 103 °C.

`Cn1c(-c2ccc(C(=O)O)cc2)ccc1-c1ccc(C(F)(F)F)cc1` had a melting point of 260 to 261 °C.

As to `CC(C)(C)NC(=O)c1ncccc1CCc1cccc(Cl)c1`, the melting point was in the range of 45 to 46 °C.

In turn, `O=C(CCS(=O)(=O)CCOCCc1ccccc1)NCCc1ccc(O)c2[nH]c(=O)sc12` had a melting point of 142 to 144 °C.

For the compound `Cc1sc2c(Sc3ccccc3)c3ccccc3c(-c3cc(Br)c(O[C@H](C)C(=O)O)c(Br)c3)c2c1C`, the melting point fell in the range of 237 to 239 °C.

On to `CCCCOP(=O)(C/C=C/CC1(C(=O)NCCC)c2cc(F)ccc2-c2ccc(F)cc21)OCCCC`, for which the melting point is 142 to 146 °C.

Consider `O=C1CN(c2ccccc2)C(=O)N1C(=O)c1cccc(Oc2ccccc2)c1`, for which the melting point was 157 to 158 °C.

The compound `CC(=O)CC(=O)NC1CCCCCC1` returned a melting point of 52 °C.

Take `COC(=O)c1ccc(CCCc2cnc3nc(N)nc(O)c3c2)cc1`: the melting point was above 250 °C.

The compound `CCCCCCCCCCCCCCCCCCSC(=O)Nc1ccc(NC(=O)NS(=O)(=O)c2ccc3ccccc3c2)cc1` came in with a melting point of 193 °C.

The compound `Oc1ccc(F)nc1I` showed a melting point of 96 to 98 °C.

In turn, `CC(=O)N1CCN(c2c(Cl)cncc2Cl)CC1` showed a melting point of 144 to 146 °C.

With `CC(C)(C)c1cc(C(=O)N2CCN(c3ccc([N+](=O)[O-])cc3)CC2)cc(C(C)(C)C)c1O`, the melting point turned out to be 160 °C.

`O=C(CN1CCCCC1)Nc1ccc2c(c1)C(=O)c1cc(NC(=O)CN3CCCCC3)ccc1C2=O` yielded a melting point of 243 °C.

`CCN(CC)CC(=O)Nc1cccc2c1C(=O)c1c(NC(=O)CN(CC)CC)cccc1C2=O` displayed a melting point of 228 to 229 °C.

As to `CC(=O)SCC(=O)Nc1ccc(C(=O)NCCO)cc1`, the melting point was 190 to 192 °C.

As for `COC(=O)COc1ccc2ccc(C(C)=O)c(O)c2c1`, the melting point lay within 133 to 135 °C.

In turn, `CCOC(=O)c1c(NCCc2ccccc2)n[nH]c1C` yielded a melting point of 138 to 139 °C.

In the case of `CC(C)n1nc(-c2c(-c3ccccc3)nc(N)[nH]c2=O)ccc1=O`, the melting point lay within 291 to 295 °C.

`CC(C)(C)OC(=O)c1ccc(NC2CCc3cc4nc(CO)[nH]c(=O)c4cc32)cc1` (racemic) showed a melting point of 265 to 266 °C.

`CC(=O)OCCN1CC(c2ccccc2)NC1=O` (centres undefined) registered a melting point of 88 to 90 °C.

On to `COc1cc(OC)c(-c2cc3ccccc3n2C)cc1C=CC(=O)c1ccc(S(=O)(=O)Nc2cc(C)on2)cc1`, for which the melting point turned out to be 220 °C.

`Cc1cc2c(N3CCc4ccc(Cl)cc43)ncnc2cn1` returned a melting point of 232 to 234 °C.

In the case of `CC(CNS(=O)(=O)C(C)C)c1ccc(NC(=O)CCl)cc1` (centres undefined), the melting point turned out to be 138 °C.

The compound `CN(C)C(=O)C1(N2CCCC2)CCNCC1` registered a melting point of 150 °C.

For `CCOC(=O)c1ccc2c(SC(=O)N(C)C)cccn2c1=O`, the melting point lay in the range of 119 to 121 °C.

Values taken from a melting point compilation (Tetko et al.; mined from patent text by program, amines drawn as free bases though some values may be those of a salt).
